Assay results reported in patent publication US20240217983A1, “GPR119 AGONISTS” (Kallyope, Inc., priority 2021, published 2024).
pEC50: −log10 of the molar value.

Target: T1, human GPR119 (hGPR119) (Homo sapiens, UniProt Q8TDV5)
T1 construct: expressed in transfected cells
T1 sequence (Q8TDV5 1-335): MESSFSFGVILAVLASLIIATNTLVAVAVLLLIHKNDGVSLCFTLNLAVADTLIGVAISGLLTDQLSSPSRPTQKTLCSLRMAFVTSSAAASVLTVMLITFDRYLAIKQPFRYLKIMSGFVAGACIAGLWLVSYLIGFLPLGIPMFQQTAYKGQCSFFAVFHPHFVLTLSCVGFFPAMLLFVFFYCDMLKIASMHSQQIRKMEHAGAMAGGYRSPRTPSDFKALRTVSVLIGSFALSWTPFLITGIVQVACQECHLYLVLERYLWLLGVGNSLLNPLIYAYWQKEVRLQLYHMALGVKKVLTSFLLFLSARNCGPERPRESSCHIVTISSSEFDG
Test: cAMP accumulation assay (Cisbio cAMP Gs dynamic HTRF kit) in CHO-K1 cells stably expressing human GPR119
Assay type: cell-based
Conditions: 4-parameter fit; for Emax: 1 h, % activity normalized to Max and Min controls; for pEC50: 60 minutes at 37° C.
Method: CHO-K1 cells stably expressing human GPR119 (hGPR119) were prepared by transfection of a GPR119-carrying plasmid using Lipofectamine 2000 (following manufacturer instructions). A stable cell line was established using the limiting dilution method with geneticine selection. Assay-ready frozen (ARF) cells were prepared and used throughout the study.
The assay was performed in a 384-well plate format using the cAMP Gs dynamic assay kit from Cisbio. ARF cells expressing hGPR119 were thawed, washed and then resuspended in cAMP stimulation buffer at a cell density of 1.1×10^6 cells/mL. Cells were plated at a density of ˜10,000 cells/well (9 μL/well). Dose response curves for the tested compounds were prepared in a cAMP stimulation buffer, containing 0.1% Tween 80 at 4 fold the final concentration. The compounds were then transferred to the cell plates using BRAVO (3 μL/well) and the plates were incubated for 60 minutes at 37° C./5% CO2. Detection buffer (10 μL, prepared as described in the cAMP Gs dynamic kit) were added to each well, and the plates were incubated at ambient temperature for 1 hr.
RT-FRET was measured using a ClarioSTAR plate reader, calculating the ratio between emissions at 665 nm and 620 nm (HTRF ratio). The HTRF ratio for positive (Max) and negative (Min) controls were used to normalize HTRF data and generate values for % activity. EC50 and Max activity values were determined using a standard 4-parameter fit.

Emax	pEC50	Compound
100 to 130%	≥ 7.00	O=C(CCCCS(=O)(=O)O)N1C[C@@H]2CN(C(=O)Cc3ccc(OCCCC4CCN(c5ncc(Cl)cn5)CC4)cc3F)C[C@@H]2C1 [Example 10, 5-((3aR,6aS)-5-(2-(4-(3-(1-(5-chloropyrimidin-2-yl)piperidin-4-yl)propoxy)-2-fluorophenyl)acetyl)hexahydropyrrolo[3,4-c]pyrrol-2(1H)-yl)-5-oxopentane-1-sulfonic acid]
100 to 130%	< 5.00	O=C(CCCCS(=O)(=O)O)N1CC2(CCN2C(=O)Cc2ccc(OCCCC3CCN(c4ncc(Cl)cn4)CC3)cc2F)C1 [Example 9, 5-(1-(2-(4-(3-(1-(5-chloropyrimidin-2-yl)piperidin-4-yl)propoxy)-2-fluorophenyl)acetyl)-1,6-diazaspiro[3.3]heptan-6-yl)-5-oxopentane-1-sulfonic acid]
100 to 130%	≥ 7.00	O=C(Cc1ccc(OCCCC2CCN(c3ncc(Cl)cn3)CC2)cc1F)N1CC2(CCCN2C(=O)CCCCS(=O)(=O)O)C1 [Example 18, 5-(2-(2-(4-(3-(1-(5-chloropyrimidin-2-yl)piperidin-4-yl)propoxy)-2-fluorophenyl)acetyl)-2,5-diazaspiro[3.4]octan-5-yl)-5-oxopentane-1-sulfonic acid]
100 to 130%	≥ 7.00	O=C(Cc1ccc(OCCCC2CCN(c3ncc(Cl)cn3)CC2)cc1F)N1CC2(CCN2C[C@H](O)[C@@H](O)[C@H](O)[C@H](O)CO)C1 [Example 33, 2-(4-(3-(1-(5-chloropyrimidin-2-yl)piperidin-4-yl)propoxy)-2-fluorophenyl)-1-(1-((2S,3R,4R,5R)-2,3,4,5,6-pentahydroxyhexyl)-1,6-diazaspiro[3.3]heptan-6-yl)ethan-1-one]
≥ 130%	≥ 7.00	O=C(Cc1ccc(OCCCC2CCN(c3ncc(Cl)cn3)CC2)cc1F)N1CCC2(C1)CN(C(=O)CCCCS(=O)(=O)O)C2 [Example 2, 5-(6-(2-(4-(3-(1-(5-chloropyrimidin-2-yl)piperidin-4-yl)propoxy)-2-fluorophenyl)acetyl)-2,6-diazaspiro[3.4]octan-2-yl)-5-oxopentane-1-sulfonic acid]
100 to 130%	≥ 7.00	O=C(Cc1ccc(OCCCC2CCN(c3ncc(Cl)cn3)CC2)cc1F)N1CCC2(CN(C[C@H](O)[C@H](O)[C@H](O)CO)CCO2)C1 (stereo partly drawn) [Example 72, 2-(4-(3-(1-(5-chloropyrimidin-2-yl)piperidin-4-yl)propoxy)-2-fluorophenyl)-1-(9-((2S,3S,4R)-2,3,4,5-tetrahydroxypentyl)-6-oxa-2,9-diazaspiro[4.5]decan-2-yl)ethan-1-one]
100 to 130%	≥ 7.00	O=C(Cc1ccc(OCCCC2CCN(c3ncc(Cl)cn3)CC2)cc1F)N1CCC2(CCN2C(=O)CCCCS(=O)(=O)O)C1 (centres unmarked) [Example 4, 5-(6-(2-(4-(3-(1-(5-chloropyrimidin-2-yl)piperidin-4-yl)propoxy)-2-fluorophenyl)acetyl)-1,6-diazaspiro[3.4]octan-1-yl)-5-oxopentane-1-sulfonic acid]
100 to 130%	≥ 7.00	O=C(CCCCS(=O)(=O)O)N1CCN(C(=O)Cc2ccc(OCCCC3CCN(c4ncc(Cl)cn4)CC3)cc2F)CC1 [Example 23, 5-(4-(2-(4-(3-(1-(5-chloropyrimidin-2-yl)piperidin-4-yl)propoxy)-2-fluorophenyl)acetyl)piperazin-1-yl)-5-oxopentane-1-sulfonic acid]
100 to 130%	≥ 7.00	O=C(Cc1ccc(OCCCC2CCN(c3ncc(Cl)cn3)CC2)cc1F)N1CCC2(CN(C[C@H](O)[C@H](O)[C@H](O)CO)C2)C1 [Example 28, 2-(4-(3-(1-(5-chloropyrimidin-2-yl)piperidin-4-yl)propoxy)-2-fluorophenyl)-1-(2-((2S,3S,4R)-2,3,4,5-tetrahydroxypentyl)-2,6-diazaspiro[3.4]octan-6-yl)ethan-1-one]

Further lines, the compound ahead of its results:

Compound	Emax	pEC50
O=C(Cc1ccc(OCCCC2CCN(c3ncc(Cl)cn3)CC2)cc1F)N1C[C@H]2CCN(C[C@H](O)[C@H](O)[C@H](O)CO)[C@H]2C1 [Example 64, 2-(4-(3-(1-(5-chloropyrimidin-2-yl)piperidin-4-yl)propoxy)-2-fluorophenyl)-1-((3aR,6aR)-1-((2S,3S,4R)-2,3,4,5-tetrahydroxypentyl)hexahydropyrrolo[3,4-b]pyrrol-5(1H)-yl)ethan-1-one]	100 to 130%	≥ 7.00
O=C(Cc1ccc(OCCCC2CC23CCN(c2ncc(Cl)cn2)CC3)cc1F)N1CCN(C[C@H](O)[C@@H](O)[C@H](O)[C@H](O)CO)CC1 (stereo partly drawn) [Example 109, 2-(4-(3-(6-(5-chloropyrimidin-2-yl)-6-azaspiro[2.5]octan-1-yl)propoxy)-2-fluorophenyl)-1-(4-((2S,3R,4R,5R)-2,3,4,5,6-pentahydroxyhexyl)piperazin-1-yl)ethan-1-one]	100 to 130%	6.00 to 7.00
COCc1cnc(N2CCC(CCCOc3cc(F)c(CC(=O)N4CCN(C[C@H](O)[C@@H](O)[C@H](O)[C@H](O)CO)CC4)c(F)c3)CC2)nc1 [Example 99, 2-(2,6-difluoro-4-(3-(1-(5-(methoxymethyl)pyrimidin-2-yl)piperidin-4-yl)propoxy)phenyl)-1-(4-((2S,3R,4R,5R)-2,3,4,5,6-pentahydroxyhexyl)piperazin-1-yl)ethan-1-one]	100 to 130%	≥ 7.00
O=C(Cc1ccc(OCCCC2CCN(c3ncc(Cl)cn3)CC2)cc1F)N1C[C@H]2C[C@@H]1CN2C[C@H](O)[C@H](O)[C@H](O)CO [Example 46, 2-(4-(3-(1-(5-chloropyrimidin-2-yl)piperidin-4-yl)propoxy)-2-fluorophenyl)-1-((1R,4R)-5-((2S,3S,4R)-2,3,4,5-tetrahydroxypentyl)-2,5-diazabicyclo[2.2.1]heptan-2-yl)ethan-1-one]	≥ 130%	≥ 7.00
O=C(Cc1ccc(OCCC2CC(C3CCN(c4ncc(Cl)cn4)CC3)C2)cc1F)N1CCN(C[C@H](O)[C@@H](O)[C@H](O)[C@H](O)CO)CC1 (stereo partly drawn) [Example 115, 2-(4-(2-(3-(1-(5-chloropyrimidin-2-yl)piperidin-4-yl)cyclobutyl)ethoxy)-2-fluorophenyl)-1-(4-((2S,3R,4R,5R)-2,3,4,5,6-pentahydroxyhexyl)piperazin-1-yl)ethan-1-one]	100 to 130%	6.00 to 7.00
O=C(Cc1ccc(OCCC2CC3(CCN(c4ncc(Cl)cn4)CC3)C2)cc1F)N1CCN(C[C@H](O)[C@@H](O)[C@H](O)[C@H](O)CO)CC1 [Example 110, 2-(4-(2-(7-(5-chloropyrimidin-2-yl)-7-azaspiro[3.5]nonan-2-yl)ethoxy)-2-fluorophenyl)-1-(4-((2S,3R,4R,5R)-2,3,4,5,6-pentahydroxyhexyl)piperazin-1-yl)ethan-1-one]	100 to 130%	6.00 to 7.00
O=C(Cc1ccc(OCCCC2CCN(c3ncc(Cl)cn3)CC2)cc1F)N1CC2(CCC2NC[C@H](O)[C@H](O)[C@H](O)CO)C1 (stereo partly drawn) [Example 78, 2-(4-(3-(1-(5-chloropyrimidin-2-yl)piperidin-4-yl)propoxy)-2-fluorophenyl)-1-(5-(((2S,3S,4R)-2,3,4,5-tetrahydroxypentyl)amino)-2-azaspiro[3.3]heptan-2-yl)ethan-1-one]	≥ 130%	≥ 7.00
O=C(Cc1ccc(OCCCC2CCN(c3ncc(Cl)cn3)CC2)c(F)c1)N1CCN(C[C@H](O)[C@@H](O)[C@H](O)[C@H](O)CO)CC1 [Example 91, 2-(4-(3-(1-(5-chloropyrimidin-2-yl)piperidin-4-yl)propoxy)-3-fluorophenyl)-1-(4-((2S,3R,4R,5R)-2,3,4,5,6-pentahydroxyhexyl)piperazin-1-yl)ethan-1-one]	100 to 130%	6.00 to 7.00
O=C(Cc1ccc(OCCCC2CCN(c3ncc(Cl)cn3)CC2)cc1F)N1CCN(C[C@H](O)[C@H](O)[C@H](O)CO)C2CC21 (stereo partly drawn) [Example 58, 2-(4-(3-(1-(5-chloropyrimidin-2-yl)piperidin-4-yl)propoxy)-2-fluorophenyl)-1-(5-((2S,3S,4R)-2,3,4,5-tetrahydroxypentyl)-2,5-diazabicyclo[4.1.0]heptan-2-yl)ethan-1-one]	100 to 130%	≥ 7.00
O=C(Cc1ccc(OCCCC2CCN(c3ncc(Cl)cn3)CC2)cc1F)N1C[C@@H]2CN(C[C@H](O)[C@@H](O)[C@H](O)[C@H](O)CO)C[C@@H]21 [Example 39, 2-(4-(3-(1-(5-chloropyrimidin-2-yl)piperidin-4-yl)propoxy)-2-fluorophenyl)-1-((1S,5R)-3-((2S,3R,4R,5R)-2,3,4,5,6-pentahydroxyhexyl)-3,6-diazabicyclo[3.2.0]heptan-6-yl)ethan-1-one]	100 to 130%	≥ 7.00
